Tests used:
[1] = system: Boophilus microplus; test: Boophilus microplus - injection test; assay type: in vivo; conditions: application rate 20 μg/animal; injection into engorged adult female ticks; after 7 days
In short: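 Active ingredient in DMSO, 1 μl injected into the abdomen of 5 engorged adult female ticks, then held in a climate-controlled room. Efficacy scored after 7 days from laying of fertile eggs, with non-fertile-looking eggs kept about 42 days for larval hatch; 100% means no fertile eggs.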

[2] = system: Musca domestica; test: Musca domestica test; assay type: in vivo; conditions: application rate 100 ppm; adult houseflies; after 2 days
In short: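 Percent kill of adult houseflies is recorded 2 days after exposure, where 100% denotes all flies dead and 0% none. Flies (10 per vessel) feed from a sponge carrying sugar solution and the aqueous-diluted DMSO formulation.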

[3] = system: Phaedon cochleariae; test: Phaedon cochleariae - spray test; assay type: in vivo; conditions: larvae on Chinese cabbage leaf discs, after 7 days
In short: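 Chinese cabbage leaf discs sprayed with compound formulated in acetone/DMF and water containing 1000 ppm emulsifier; once dry, infested with mustard beetle larvae. Efficacy (% larvae killed) scored after 7 days.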

[4] = system: Tetranychus urticae; test: Tetranychus urticae - spray test, OP-resistant; assay type: in vivo; conditions: bean leaf discs, after 6 days
In short: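 Compound dissolved in acetone/DMF, diluted with water containing 1000 ppm alkylaryl polyglycol ether emulsifier to test concentrations. Bean leaf discs infested with all stages of spider mites were sprayed; % kill determined after 6 days (100% = all mites dead, 0% = none).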

[5] = logP determination by HPLC on a reversed-phase column (C18); assay type: physicochemical; conditions: for logP^a): HPLC-MS method a); for log P: HPLC-MS
[6] = system: Spodoptera frugiperda; test: Spodoptera frugiperda - spray test; assay type: in vivo; conditions: caterpillars on maize leaf discs, after 7 days
In short: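 Maize leaf discs sprayed with compound formulated in acetone/DMF and diluted in water containing 1000 ppm alkylaryl polyglycol ether emulsifier, then infested with armyworm caterpillars after drying. Efficacy scored after 7 days as % caterpillars killed (100% all, 0% none).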

[7] = system: Ctenocephalides felis; test: Ctenocephalides felis - oral test; assay type: in vivo; conditions: application rate 100 ppm in citrated cattle blood; after 2 days
In short: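 Compound in DMSO diluted into citrated cattle blood, fed through a parafilm membrane to about 20 unfed adult cat fleas. Kill in % scored after 2 days (100% = all dead).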

[8] = system: Lucilia cuprina; test: Lucilia cuprina test; assay type: in vivo; conditions: application rate 100 ppm; L1 larvae; after 2 days
In short: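 About 20 L1 larvae placed on minced horsemeat treated with compound, formulated in DMSO and diluted with water to test concentration. Kill in % scored after 2 days (100% = all larvae dead, 0% = none).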

[9] = system: Boophilus microplus Parkhurst strain, SP-resistant; test: Boophilus microplus - dip test; assay type: in vivo; conditions: application rate 100 ppm; dip of engorged adult female ticks; after 7 days
In short: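 SP-resistant Parkhurst strain engorged adult female Boophilus microplus (8-10 per tube) dipped in DMSO-based compound dilutions in water, then kept in a climate-controlled room. Efficacy scored after 7 days from fertile egg laying, with larval hatch checked after about 42 days; 100% means no fertile eggs.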

[10] = system: Ctenocephalides felis; test: Ctenocephalides felis - in vitro contact tests with adult cat fleas; assay type: in vivo; conditions: application rate 5 μg/cm2 (=500 g/ha); after 48 h; fleas dead or moribund
In short: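 Tubes coated with compound in acetone (250 μl of 900 ppm solution gives 5 μg/cm^2 on 44.7 cm^2), solvent evaporated, then 5–10 adult fleas added and kept horizontal at room temperature and ambient humidity. After 48 h, dead or moribund (motionless/uncoordinated) fleas scored as % efficacy.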

[11] = system: Amblyomma hebraeum; test: Amblyomma hebaraeum test (tick nymphs, immersion); assay type: in vivo; conditions: application rate 100 ppm; tick nymphs immersed one minute; after 42 days
In short: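 Tick nymphs immersed for one minute in compound diluted in water from a DMSO concentrate, then held on filter paper in a Petri dish in a climate-controlled cabinet. Kill (%) scored after 42 days; 100% means all ticks dead, 0% none.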

[12] = system: Rhipicephalus sanguineus; test: Rhipicephalus sanguineus - in vitro contact tests with adult brown dog ticks; assay type: in vivo; conditions: after 48 h, ticks dead or moribund
In short: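 Test tubes coated with active ingredient in acetone, 5 μg/cm^2 at 900 ppm. 5-10 adult ticks per tube, kept dark at room temperature for 48 h. Ticks then heated at 45-50° C ≤5 min; motionless or uncoordinated ticks scored dead/moribund, efficacy as % dead or moribund.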

[13] = system: Myzus persicae; test: Myzus persicae - spray test; assay type: in vivo; conditions: Chinese cabbage leaf discs, after 6 days
In short: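 Chinese cabbage leaf discs carrying all stages of Myzus persicae sprayed with compound in acetone/DMF diluted in water with 1000 ppm emulsifier. Efficacy (% aphids killed) assessed after 6 days.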

[14] = reversed-phase column (C18), Table I-T3

SMILES | efficacy (laying of fertile eggs) [1] [%] | efficacy (kill) [2] [%] | logP^a) [5] | efficacy (kill) [7] [%] | efficacy (kill) [8] [%] | efficacy (laying of fertile eggs) [9] [%] | efficacy [10] [%] | efficacy (kill) [11] [%] | efficacy ([12]; application rate 5 μg/cm2) [%] | efficacy ([13]; application rate 100 g/ha) [%] | efficacy ([3]; application rate 500 g/ha) [%] | efficacy ([4]; application rate 500 g/ha) [%] | log P [5, 14] | efficacy ([6]; application rate 500 g/ha) [%] | efficacy ([13]; application rate 500 g/ha) [%] | logP^a) ([5]; reversed-phase column (C18)) | also measured
CCc1cc(C(F)(C(F)(F)F)C(F)(F)F)cc(Cl)c1-n1cc(-c2ccc(Cl)c(C(=O)NC3CC3)c2)cn1 [I-T3-72] | 100 | 100 | 4.6 | 100 | 100 | 100 | 100 | 100 | 100 | 90 |  |  |  |  |  |  | efficacy ([3]; application rate 100 g/ha): 100%; efficacy ([4]; application rate 100 g/ha): 100%; logP^a) [5, 14]: 4.6; efficacy ([6]; application rate 100 g/ha): 100%
CCc1cc(C(F)(F)C(F)(F)F)cc(C)c1-n1cc(-c2ccc(Cl)c(C(=O)NC3CC3)c2)cn1 [I-T3-81] | 100 | 90 | 4.3 | 100 | 100 | 100 | 100 | 100 | 100 | 90 |  |  |  |  |  |  | efficacy ([3]; application rate 100 g/ha): 100%; efficacy ([4]; application rate 100 g/ha): 100%; logP^a) [5, 14]: 4.3; efficacy ([6]; application rate 100 g/ha): 100%
Cc1ncc(-c2cnn(-c3c(Cl)cc(C(F)(C(F)(F)F)C(F)(F)F)cc3Cl)c2)cc1C(=O)NC1CC1 [I-T3-91] | 100 | 100 | 3.3 | 100 | 100 | 100 | 100 | 100 | 100 |  | 100 | 100 | 3.3 | 100 | 90 |  | 
Cc1ncc(-c2cnn(-c3c(Cl)cc(C(F)(C(F)(F)F)C(F)(F)F)cc3Cl)c2)cc1C(=O)NC1(C#N)CC1 [I-T3-92] | 100 | 100 | 3.4 | 100 | 100 | 100 | 100 | 100 | 80 |  | 100 | 100 | 3.4 | 100 | 100 |  | 
Cc1cc(C(F)(C(F)(F)F)C(F)(F)F)cc(C)c1-n1cc(-c2cnc(C)c(C(=O)NC3CC3)c2)cn1 [I-T3-96] | 100 | 100 | 3.3 | 100 | 100 | 100 | 100 | 100 | 100 | 90 | 100 | 100 | 3.3 | 100 |  |  | 
Cc1cc(C(F)(C(F)(F)F)C(F)(F)F)cc(C)c1-n1cc(-c2cnc(C)c(C(=O)NC3(C#N)CC3)c2)cn1 [I-T3-97] | 100 | 100 | 3.4 | 100 | 100 | 100 | 100 | 100 | 100 |  | 100 | 100 | 3.4 | 100 | 90 |  | 
O=C(NC1CC1)c1cc(-c2cnn(-c3c(Cl)cc(C(F)(F)F)cc3Cl)c2)cnc1Cl [I-T3-98] | 100 | 90 | 3.1 | 100 | 100 | 100 | 100 | 100 | 100 | 90 | 100 | 100 | 3.1 | 100 |  |  | 
Cc1cc(C(F)(C(F)(F)F)C(F)(F)F)cc(C(F)(F)F)c1-n1cc(-c2cnc(Cl)c(C(=O)NC3CC3)c2)cn1 [I-T3-106] | 100 | 100 |  | 100 | 100 | 100 | 100 | 100 | 100 |  | 100 | 100 | 4.0 | 100 | 100 | 4.0 | 
Cc1cc(C(F)(C(F)(F)F)C(F)(F)F)cc(C(F)(F)F)c1-n1cc(-c2cnc(Cl)c(C(=O)NC3(C#N)CC3)c2)cn1 [I-T3-108] | 100 | 100 |  | 100 | 100 | 100 | 100 | 100 |  |  | 100 | 100 | 4.0 | 100 | 100 | 4.0 | efficacy ([12]; application rate 1 μg/cm2): 100%
CCc1cc(C(F)(C(F)(F)F)C(F)(F)F)cc(C)c1-n1cc(-c2cnc(Cl)c(C(=O)NC3CC3)c2)cn1 [I-T3-109] | 100 | 100 |  | 100 | 100 | 100 | 100 | 100 | 100 |  | 100 | 100 | 4.2 | 100 | 90 | 4.2 | 
CCc1cc(C(F)(C(F)(F)F)C(F)(F)F)cc(C)c1-n1cc(-c2cnc(Cl)c(C(=O)NC3(C#N)CC3)c2)cn1 [I-T3-110] | 100 | 100 |  | 100 | 100 | 100 | 100 | 100 | 100 |  | 100 | 100 | 4.1 | 100 | 100 | 4.1 | 
O=C(NC1CC1)c1cc(-c2cnn(-c3c(Cl)cc(C(F)(C(F)(F)F)C(F)(F)F)cc3C(F)(F)F)c2)cnc1Cl [I-T3-112] | 100 | 100 |  | 100 | 100 | 100 | 100 | 100 | 100 | 100 | 100 | 100 | 4.0 | 100 |  | 4.0 | 

From US10150737B2, “Compounds for controlling arthropods” (priority 2013, dated 2018)
